Calls of active or inactive are those of the source. The rule behind the calls is not given here.
Columns and labels:
[1] = biological target: P2Y purinoceptor 12 (Homo sapiens) (UniProt Q9H244); assay: Antagonist activity at P2Y12 in human platelet rich plasma assessed as inhibition of ADP-induced CD62P expression at 10 uM pretreated for 30 mins followed by ADP addition measured after 5 mins by flow cytometric analysis; type: functional
[2] = biological target: P2Y purinoceptor 12 (Homo sapiens) (UniProt Q9H244); assay: Antagonist activity at P2Y12 in human platelet rich plasma assessed as inhibition of ADP-induced PAC1 expression at 10 uM pretreated for 30 mins followed by ADP addition measured after 5 mins by flow cytometric analysis; type: functional
[3] = biological target: P2Y purinoceptor 12 (Homo sapiens) (UniProt Q9H244); assay: Antagonist activity at P2Y12 in human platelet rich plasma assessed as inhibition of ADP-induced platelet aggregation at 10 uM pretreated for 30 mins followed by ADP addition measured after 5 mins by light transmission aggregometric analysis; type: functional
[4] = biological target: P2Y purinoceptor 12 (Homo sapiens) (UniProt Q9H244); assay: Antagonist activity at P2Y12 in human platelet rich plasma assessed as inhibition of collagen-induced platelet aggregation at 10 uM pretreated for 30 mins followed by collagen addition measured after 5 mins by light transmission aggregometric analysis; type: functional
[5] = biological target: P2Y purinoceptor 12 (Homo sapiens) (UniProt Q9H244); assay: Antagonist activity at P2Y12 in human whole blood assessed as inhibition of ADP-induced platelet-aggregation at 10 uM pretreated for 30 mins followed by ADP addition measured after 5 mins by FITC staining-based flow cytometric analysis; type: functional
[6] = biological target: P2Y purinoceptor 12 (Homo sapiens) (UniProt Q9H244); assay: Synergistic inhibition of P2Y12 in human platelet rich plasma assessed as inhibition of ADP-induced platelet aggregation at 10 uM pretreated for 30 mins followed by ADP addition measured after 5 mins in presence of aspirin by light transmission aggregometric analysis; type: functional
[7] = system: Platelet; assay: Cytotoxicity against platelet in human platelet rich plasma at 100 uM after 48 to 72 hrs; type: cell-based

Sequence of P2Y purinoceptor 12 (Homo sapiens) (Q9H244 whole entry): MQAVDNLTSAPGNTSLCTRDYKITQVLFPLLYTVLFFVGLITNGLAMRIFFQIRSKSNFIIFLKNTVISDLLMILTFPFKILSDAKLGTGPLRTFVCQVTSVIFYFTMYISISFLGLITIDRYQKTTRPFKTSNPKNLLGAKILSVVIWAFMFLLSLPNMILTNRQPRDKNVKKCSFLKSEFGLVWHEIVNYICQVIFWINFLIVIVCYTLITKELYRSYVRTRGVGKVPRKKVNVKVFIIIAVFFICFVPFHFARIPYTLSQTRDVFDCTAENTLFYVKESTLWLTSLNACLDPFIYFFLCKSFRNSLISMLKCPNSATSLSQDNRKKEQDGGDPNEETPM

Compound	inhibition [1]	inhibition [2]	inhibition [3]	inhibition [4]	inhibition [5]	inhibition [6]	Activity [7]
Nc1c(C(=O)Nc2ccccc2Cl)sc2nc3c(cc12)C(=O)CCC3	Active	Active	Active	Active	Active	Active	Non-Toxic
Cc1c(Cl)cccc1NC(=O)c1sc2nc3c(cc2c1N)CCCCC3	Active	Active	Active	Active	Active	Active	Non-Toxic
Nc1c(C(=O)Nc2cccc(Cl)c2)sc2nc3c(cc12)C(=O)CCC3	Active	Active	Active	Active	Active	Active	Non-Toxic
CC(=O)Oc1ccccc1C(=O)O			Active				
COc1ccc(NC(=O)c2sc3nc4c(cc3c2N)CCCCCC4)cc1	Active	Active	Active	Active	Active	inactive	Non-Toxic
Nc1c(C(=O)Nc2ccccc2)sc2nc3c(cc12)CCCCCC3	Active	Active	Active	Active	Active	Active	Non-Toxic
COC(=O)[C@H](c1ccccc1Cl)N1CCc2sccc2C1			Active	inactive	Active		
Cc1c(Br)cccc1NC(=O)c1sc2nc3c(cc2c1N)CCCCCC3	Active	Active	Active	Active	Active	inactive	Non-Toxic

— ChEMBL document CHEMBL4138164, “Thieno[2,3-b]pyridine derivatives are potent anti-platelet drugs, inhibiting platelet activation, aggregation and showing synergy with aspirin” (Eur J Med Chem, 2018)
